How the values were obtained:
ALDH1A3 = target: T1, ALDH1A3 (Homo sapiens, UniProt P47895); assay: IC50 evaluation, NADH formation at 340 nm (Tecan SUNRISE); format: biochemical; settings: ALDH1A3; 20 mM acetaldehyde, 500 μM NAD+, 15% DMSO, 2.7 μM isoenzyme; read-out: IC50
T1 construct: His-tag; made in house; host or cells: bacterial cells
T1 sequence (P47895 1-512): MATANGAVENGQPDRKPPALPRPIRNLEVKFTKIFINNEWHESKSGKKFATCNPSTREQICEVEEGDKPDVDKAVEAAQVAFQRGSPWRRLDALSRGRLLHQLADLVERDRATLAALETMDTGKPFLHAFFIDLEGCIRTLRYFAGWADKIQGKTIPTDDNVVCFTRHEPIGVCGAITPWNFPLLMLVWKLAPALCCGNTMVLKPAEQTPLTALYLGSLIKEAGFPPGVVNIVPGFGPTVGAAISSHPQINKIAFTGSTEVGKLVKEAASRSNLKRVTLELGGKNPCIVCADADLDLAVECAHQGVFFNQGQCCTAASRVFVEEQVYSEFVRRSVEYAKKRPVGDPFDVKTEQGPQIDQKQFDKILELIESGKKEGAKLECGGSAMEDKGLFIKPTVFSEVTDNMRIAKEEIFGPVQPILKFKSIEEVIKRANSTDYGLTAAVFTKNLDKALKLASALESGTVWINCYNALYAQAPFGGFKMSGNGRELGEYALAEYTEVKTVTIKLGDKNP
Procedure: (§1) A common protocol to express and purify all three members of the ALDHIA subfamily has been optimized. Briefly, induced cells, collected by centrifugation, were re-suspended in an appropriate volume of lysis buffer (50 mM Na2HPO4, 300 mM NaCl, 1 mM β-mercaptoethanol, 20 mM imidazole, pH 7.5) added of benzonase nuclease (250 U/μL) and Protease inhibitor cocktail from SIGMA. After ultracentrifugation, the clarified sample was purified by a His-tag affinity chromatography followed by size-exclusion chromatography, using an AKTA FPLC system, at 4° C. To evaluate the purity and homogeneity of the protein, after each purification step, eluted d fractions were analyzed by SDS-PAGE and the protein quantification was always determined by Bradford protein assay.
(§2) IC50 evaluation: on a Tecan—SUNRISE, probe 13 was tested in a serial dilution series from 200 μM to 3, 125 μM, against all the three isoenzymes. The recipe of reaction buffer was: 20 mM Tris HCl pH=8, 150 mM KCl, 1 mM B-mercaptoethanol, 500 μM NAD^+, 15% DMSO fixed, 20 mM acetaldehyde and 2.7 μM each isoenzyme. The analysis was conducted measuring the NADH formation, that has a specific absorbance wavelength (340 nm). The test was performed in triplicate with all the three isoenzymes.

ALDH1A2 = target: T2, ALDH1A2 (Homo sapiens, UniProt O94788); assay: as above; format: biochemical; settings: 20 mM acetaldehyde, 500 μM NAD+, 15% DMSO, 2.7 μM isoenzyme, read-out: IC50
T2 construct: His-tag; made in house; host or cells: bacterial cells
T2 sequence (O94788 1-518): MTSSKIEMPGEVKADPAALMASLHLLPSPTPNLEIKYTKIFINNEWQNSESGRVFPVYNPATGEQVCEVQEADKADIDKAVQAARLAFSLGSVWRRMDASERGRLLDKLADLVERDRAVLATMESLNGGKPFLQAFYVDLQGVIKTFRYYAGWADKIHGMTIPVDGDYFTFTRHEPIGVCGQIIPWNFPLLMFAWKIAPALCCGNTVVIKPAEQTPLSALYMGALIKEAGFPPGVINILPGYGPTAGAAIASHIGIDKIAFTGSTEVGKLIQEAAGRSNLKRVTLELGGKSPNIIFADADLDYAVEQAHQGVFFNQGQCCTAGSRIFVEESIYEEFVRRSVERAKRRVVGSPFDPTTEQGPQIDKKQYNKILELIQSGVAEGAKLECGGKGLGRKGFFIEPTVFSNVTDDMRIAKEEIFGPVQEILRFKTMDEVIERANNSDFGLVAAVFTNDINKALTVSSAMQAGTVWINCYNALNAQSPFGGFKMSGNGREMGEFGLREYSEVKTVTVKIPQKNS
Procedure: as §1, §2

GL261 glioblastoma cells = assay: In vivo labelling of GL261 glioma in mouse brain after i.p. injection; settings: GL261 tumor-bearing mouse brain, 6 hours after injection, 6 days after implantation
Source text: We used in vitro and in vivo cells from a mouse high grade glioma cell line, GL261, Briefly, twenty-four 2- to 3-month-old female C57BIC mice were stereotactically implanted under deep general anesthesia (isoflurane supplemented with nitrous oxide) with 1×10^5 GL261 glioblastoma cells. The cells were stereotactically inoculated through a burr hole by a Hamilton syringe into the left striatum (coordinates: 1 mm anteroposterior and 1 mm lateral from bregma, at a depth of 3 mm). All experimental procedures were conducted in accordance with the European Communities Council Directive of 24 Nov. 1986 (86/609 EEC), Recommendation 18/06/2007, Dir. 2010/63/UE, and the Italian law for care and use of experimental animals (DL116/92) and were approved by the Italian Ministry of Health (prot. E669C.15) and the Bioethical Committee of the University of Turin. All animals were housed under a 12-hour light-dark cycle in an environmentally controlled room. All experiments were designed to minimize the numbers of animals used and their discomfort. In each experiment, animals with tumors were allocated to two groups and i.p. injected with probe 14 or probe 13. All drugs were administered intraperitoneally, and treatments were started days 6 after tumor implantation. […] Quantitative and phenotypic evaluations were made on images acquired with a Leica TCS SP5 confocal microscope.

IC50 (ALDH1A3)	IC50 (ALDH1A2)	Compound	probe fluorescence / penetration in tumor cells in vivo (GL261 glioblastoma cells)
14.5 µM	92.8 µM	CCOC(=O)Cn1cc(COc2ccc(/C=C/C(O)=C/C(=O)/C=C/c3ccc(O)c(OC)c3)cc2OC)nn1 [Compound 14]	does not penetrate to any appreciable level
1.5 µM	131 µM	COc1cc(/C=C/C(=O)/C=C(O)/C=C/c2ccc(OCc3cn(CCOc4ccc(C=O)cc4)nn3)c(OC)c2)ccc1O [Compound 13]	fluoresce in green

From patent US20250281649A1, “PROBE DIRECTED TO ENZYME ALDH1A3 AND USE THEREOF IN THE DIAGNOSIS OF GLIOBLASTOMA” (Universita' Degli Studi Del Piemonte Orientale "A. Avogadro", priority 2021, published 2025)
